Results published in patent US9302991B2, “Arylamide derivatives as TTX-S blockers” (RaQualia Pharma Inc., priority 2010, dated 2016).

Key:
human Nav1.3 channels = target: T1, human Nav1.3 channels (Homo sapiens, UniProt Q9NY46); test: FRET assay, human Nav1.3 (EFS on FDSS); type: cell-based; details: HEK293 cells expressing human Nav1.3, read-out: IC50 against Nav1.3
T1 construct: expressed in transfected cells; host or cells: HEK293
In short: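 HEK293 cells expressing the channel, loaded with 10 microM CC2-DMPE then 15 microM DiSBAC2(3) plus 0.555 mM VABSC-1 in pH 7.4 HEPES buffer at room temperature. Membrane potential changes evoked by electrical field stimulation after compound addition; IC50 from 440 nm-normalized FRET ratios.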

human Nav1.7 channels = target: T2, human Nav1.7 channels (Homo sapiens, UniProt Q15858); test: FRET assay, human Nav1.7 (EFS on FDSS); type: cell-based; details: CHO cells expressing human Nav1.7, read-out: IC50 against Nav1.7
T2 construct: expressed in transfected cells; host or cells: CHO
T2 sequence (Q15858 whole entry): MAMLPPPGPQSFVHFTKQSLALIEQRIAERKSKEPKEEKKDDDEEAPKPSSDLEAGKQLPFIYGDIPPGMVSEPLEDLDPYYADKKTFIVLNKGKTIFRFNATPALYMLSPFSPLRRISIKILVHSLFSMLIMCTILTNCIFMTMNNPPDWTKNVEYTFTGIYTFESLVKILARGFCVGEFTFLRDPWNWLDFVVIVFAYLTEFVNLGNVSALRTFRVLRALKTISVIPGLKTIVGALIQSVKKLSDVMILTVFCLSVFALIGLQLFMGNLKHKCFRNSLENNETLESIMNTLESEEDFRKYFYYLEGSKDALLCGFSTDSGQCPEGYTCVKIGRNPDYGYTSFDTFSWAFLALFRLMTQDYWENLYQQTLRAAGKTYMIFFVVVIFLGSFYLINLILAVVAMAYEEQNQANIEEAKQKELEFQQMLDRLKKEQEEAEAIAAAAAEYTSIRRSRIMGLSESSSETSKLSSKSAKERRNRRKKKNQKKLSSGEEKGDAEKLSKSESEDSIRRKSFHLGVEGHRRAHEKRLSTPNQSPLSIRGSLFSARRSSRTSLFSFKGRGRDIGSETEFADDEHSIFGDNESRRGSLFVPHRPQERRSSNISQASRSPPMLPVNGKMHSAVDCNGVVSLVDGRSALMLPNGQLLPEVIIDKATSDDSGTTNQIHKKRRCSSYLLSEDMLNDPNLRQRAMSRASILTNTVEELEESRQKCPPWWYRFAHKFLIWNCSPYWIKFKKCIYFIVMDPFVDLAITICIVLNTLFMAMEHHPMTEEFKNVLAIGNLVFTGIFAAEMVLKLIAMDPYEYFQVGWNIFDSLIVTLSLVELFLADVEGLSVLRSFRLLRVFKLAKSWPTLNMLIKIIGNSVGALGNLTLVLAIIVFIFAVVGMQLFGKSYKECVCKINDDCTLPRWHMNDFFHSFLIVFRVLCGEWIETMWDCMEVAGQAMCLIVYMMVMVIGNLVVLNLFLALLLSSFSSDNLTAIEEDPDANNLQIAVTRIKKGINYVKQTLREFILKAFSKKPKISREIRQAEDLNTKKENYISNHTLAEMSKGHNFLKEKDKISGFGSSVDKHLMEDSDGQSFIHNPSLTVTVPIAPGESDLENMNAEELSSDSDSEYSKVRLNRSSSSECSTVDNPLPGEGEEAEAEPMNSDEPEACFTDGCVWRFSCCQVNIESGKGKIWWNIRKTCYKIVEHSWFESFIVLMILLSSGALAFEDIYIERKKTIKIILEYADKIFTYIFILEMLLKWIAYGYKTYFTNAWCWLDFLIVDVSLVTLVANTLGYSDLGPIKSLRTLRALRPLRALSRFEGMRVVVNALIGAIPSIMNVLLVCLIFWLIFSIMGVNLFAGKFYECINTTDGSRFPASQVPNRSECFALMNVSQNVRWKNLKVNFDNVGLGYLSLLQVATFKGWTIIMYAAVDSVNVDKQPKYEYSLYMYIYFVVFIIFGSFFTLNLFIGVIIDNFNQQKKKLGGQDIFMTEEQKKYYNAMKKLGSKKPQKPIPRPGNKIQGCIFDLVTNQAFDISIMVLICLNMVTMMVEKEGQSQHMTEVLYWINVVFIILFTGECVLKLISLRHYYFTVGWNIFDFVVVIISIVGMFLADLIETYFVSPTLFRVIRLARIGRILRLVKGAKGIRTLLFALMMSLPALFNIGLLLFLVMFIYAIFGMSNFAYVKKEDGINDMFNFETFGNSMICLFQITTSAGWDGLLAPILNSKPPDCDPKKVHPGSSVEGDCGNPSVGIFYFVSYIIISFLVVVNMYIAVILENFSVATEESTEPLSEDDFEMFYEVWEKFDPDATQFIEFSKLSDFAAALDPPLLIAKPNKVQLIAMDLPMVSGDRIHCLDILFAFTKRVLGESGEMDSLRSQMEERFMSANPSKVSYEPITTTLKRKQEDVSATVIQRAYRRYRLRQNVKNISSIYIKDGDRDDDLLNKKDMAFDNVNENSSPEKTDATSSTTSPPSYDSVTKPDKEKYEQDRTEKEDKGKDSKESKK
In short: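 CHO cells stably expressing the channel, loaded with CC2-DMPE (10 µM) then DiSBAC2(3) (15 µM) plus VABSC-1, in HEPES-buffered saline pH 7.4 at room temperature. Electrical field stimulation on FDSS; FRET ratio at 440 nm fitted for IC50.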

T1 sequence (Q9NY46 whole entry): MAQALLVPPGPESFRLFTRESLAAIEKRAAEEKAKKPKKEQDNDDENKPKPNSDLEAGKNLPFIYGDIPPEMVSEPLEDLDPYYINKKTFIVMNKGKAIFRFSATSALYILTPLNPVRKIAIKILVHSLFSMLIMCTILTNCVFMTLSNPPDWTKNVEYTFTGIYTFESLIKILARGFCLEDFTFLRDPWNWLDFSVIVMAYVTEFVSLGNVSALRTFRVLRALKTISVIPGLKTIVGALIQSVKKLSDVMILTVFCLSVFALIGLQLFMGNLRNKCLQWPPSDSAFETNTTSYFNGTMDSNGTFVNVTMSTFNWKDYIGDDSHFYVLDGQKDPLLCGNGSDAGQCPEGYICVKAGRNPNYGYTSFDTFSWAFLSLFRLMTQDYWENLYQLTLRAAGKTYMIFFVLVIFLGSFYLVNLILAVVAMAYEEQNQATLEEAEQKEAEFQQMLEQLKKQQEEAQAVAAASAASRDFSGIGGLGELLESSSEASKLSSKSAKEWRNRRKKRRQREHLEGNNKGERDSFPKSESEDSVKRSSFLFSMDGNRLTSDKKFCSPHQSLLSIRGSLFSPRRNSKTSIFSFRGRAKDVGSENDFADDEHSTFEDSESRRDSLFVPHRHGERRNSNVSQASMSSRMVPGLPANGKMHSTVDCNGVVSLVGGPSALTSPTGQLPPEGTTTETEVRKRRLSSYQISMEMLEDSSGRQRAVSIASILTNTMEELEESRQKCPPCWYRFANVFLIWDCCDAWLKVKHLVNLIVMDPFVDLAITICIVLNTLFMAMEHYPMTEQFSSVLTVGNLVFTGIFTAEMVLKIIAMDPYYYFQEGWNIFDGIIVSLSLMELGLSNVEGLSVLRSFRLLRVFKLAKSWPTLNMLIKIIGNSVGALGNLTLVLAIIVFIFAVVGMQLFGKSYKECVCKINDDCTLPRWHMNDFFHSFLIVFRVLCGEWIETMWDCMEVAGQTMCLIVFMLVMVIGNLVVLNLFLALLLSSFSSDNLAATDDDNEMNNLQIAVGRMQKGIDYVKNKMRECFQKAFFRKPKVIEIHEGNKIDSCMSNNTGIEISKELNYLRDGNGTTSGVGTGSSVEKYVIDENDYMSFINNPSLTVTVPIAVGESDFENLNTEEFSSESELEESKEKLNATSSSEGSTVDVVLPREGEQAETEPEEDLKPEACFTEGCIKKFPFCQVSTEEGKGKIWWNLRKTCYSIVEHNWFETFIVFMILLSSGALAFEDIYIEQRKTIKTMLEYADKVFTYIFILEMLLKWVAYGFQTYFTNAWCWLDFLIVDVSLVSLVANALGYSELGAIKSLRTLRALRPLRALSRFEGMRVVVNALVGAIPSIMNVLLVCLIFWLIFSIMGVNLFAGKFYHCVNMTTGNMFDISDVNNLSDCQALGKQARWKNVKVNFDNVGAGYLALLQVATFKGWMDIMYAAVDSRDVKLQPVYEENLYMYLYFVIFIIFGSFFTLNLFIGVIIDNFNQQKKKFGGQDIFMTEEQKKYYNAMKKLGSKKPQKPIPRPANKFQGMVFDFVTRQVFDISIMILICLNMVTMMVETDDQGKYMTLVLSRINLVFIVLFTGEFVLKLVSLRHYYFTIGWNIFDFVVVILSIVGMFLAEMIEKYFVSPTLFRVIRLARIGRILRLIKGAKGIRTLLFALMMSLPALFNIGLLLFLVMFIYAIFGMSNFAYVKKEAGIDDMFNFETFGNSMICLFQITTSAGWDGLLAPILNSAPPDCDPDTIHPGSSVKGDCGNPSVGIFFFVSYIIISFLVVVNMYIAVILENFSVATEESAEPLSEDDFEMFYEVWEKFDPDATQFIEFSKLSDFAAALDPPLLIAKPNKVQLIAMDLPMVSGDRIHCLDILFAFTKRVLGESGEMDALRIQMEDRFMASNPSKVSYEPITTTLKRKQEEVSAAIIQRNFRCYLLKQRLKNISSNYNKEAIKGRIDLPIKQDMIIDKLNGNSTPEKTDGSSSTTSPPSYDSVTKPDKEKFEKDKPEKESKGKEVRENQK

Compound | IC50 (human Nav1.3 channels) | IC50 (human Nav1.7 channels)
COc1nc(OCC(F)(F)F)ccc1CNC(=O)c1cc(C)nc(NC(=O)C(C)C)c1 [Example 494, 2-isobutyramido-N-((2-methoxy-6-(2,2,2-trifluoroethoxy)pyridin-3-yl)methyl)-6-methylisonicotinamide] | < 1000 nM | < 1000 nM
CCC(=O)Nc1cc(C(=O)NCc2cccc(OC(F)(F)F)c2)ccn1 [Example 523, 2-propionamido-N-(3-(trifluoromethoxy)benzyl)isonicotinamide] | < 1000 nM | < 1000 nM
CC(=O)Nc1cc(C(=O)NCc2cccc(OC(F)(F)F)c2)cc(C)n1 [Example 525, 2-acetamido-6-methyl-N-(3-(trifluoromethoxy)benzyl)isonicotinamide] | < 1000 nM | < 1000 nM
CCC(=O)Nc1cc(C(=O)NCc2cccc(OC(F)(F)F)c2)cc(C)n1 [Example 526, 2-methyl-6-propionamido-N-(3-(trifluoromethoxy)benzyl)isonicotinamide] | < 1000 nM | < 1000 nM
CC(C)C(=O)Nc1cc(C(=O)NCc2cccc(OC(F)(F)F)c2)ccn1 [Example 527, 2-isobutyramido-N-(3-(trifluoromethoxy)benzyl)isonicotinamide] | < 1000 nM | < 1000 nM
Cc1cc(C(=O)NCc2cccc(OC(F)(F)F)c2)cc(NC(=O)C(C)C)n1 [Example 528, 2-isobutyramido-6-methyl-N-(3-(trifluoromethoxy)benzyl)isonicotinamide] | < 1000 nM | < 1000 nM
CC(C)C(=O)Nc1cc(C(=O)NCc2cccc(C(F)(F)F)c2)ccn1 [Example 533, 2-isobutyramido-N-(3-(trifluoromethyl)benzyl)isonicotinamide] | < 1000 nM | < 1000 nM
Cc1cc(C(=O)NCc2cccc(C(F)(F)F)c2)cc(NC(=O)C(C)C)n1 [Example 534, 2-isobutyramido-6-methyl-N-(3-(trifluoromethyl)benzyl)isonicotinamide] | < 1000 nM | < 1000 nM
CC(=O)Nc1cc(C(=O)NCc2cc(C)cc(OC(F)(F)F)c2)ccn1 [Example 597, 2-acetamido-N-(3-methyl-5-(trifluoromethoxy)benzyl)isonicotinamide] | < 1000 nM | < 1000 nM
CCC(=O)Nc1cc(C(=O)NCc2cc(C)cc(OC(F)(F)F)c2)cc(C)n1 [Example 600, 2-methyl-N-(3-methyl-5-(trifluoromethoxy)benzyl)-6-propionamidoisonicotinamide] | < 1000 nM | < 1000 nM
CC(=O)Nc1cc(C(=O)NCc2cc(C)cc(OC(F)(F)F)c2)cc(C)n1 [Example 602, 2-acetamido-6-methyl-N-(3-methyl-5-(trifluoromethoxy)benzyl)isonicotinamide] | < 1000 nM | < 1000 nM
CCC(=O)Nc1cc(C(=O)NCc2ccc(OCC(F)(F)C(F)(F)F)nc2)cc(C)n1 [Example 643, 2-methyl-N-((6-(2,2,3,3,3-pentafluoropropoxy)pyridin-3-yl)methyl)-6-propionamidoisonicotinamide] | < 1000 nM | < 1000 nM
CC(=O)Nc1cc(C(=O)NCc2cccc(OC(F)(F)F)c2F)cc(C)n1 [Example 751, 2-acetamido-N-(2-fluoro-3-(trifluoromethoxy)benzyl)-6-methylisonicotinamide] | < 1000 nM | < 1000 nM
CC(=O)Nc1cc(C(=O)NCc2ccc(OCC(F)(F)F)c(C)c2)cc(C)n1 [Example 792, 2-acetamido-6-methyl-N-(3-methyl-4-(2,2,2-trifluoroethoxy)benzyl)isonicotinamide] | < 1000 nM | < 1000 nM
CCC(=O)Nc1cc(C(=O)NCc2ccc(OCC(F)(F)F)c(C)c2)cc(C)n1 [Example 793, 2-methyl-N-(3-methyl-4-(2,2,2-trifluoroethoxy)benzyl)-6-propionamidoisonicotinamide] | < 1000 nM | < 1000 nM
Cc1cc(C(=O)NCc2ccc(OCC(F)(F)F)c(C)c2)cc(NC(=O)C(C)C)n1 [Example 794, 2-isobutyramido-6-methyl-N-(3-methyl-4-(2,2,2-trifluoroethoxy)benzyl)isonicotinamide] | < 1000 nM | < 1000 nM
CC(=O)Nc1cc(C(=O)NCc2ccc(OC(F)(F)F)c(C)c2)ccn1 [Example 804, 2-acetamido-N-(3-methyl-4-(trifluoromethoxy)benzyl)isonicotinamide] | < 1000 nM | < 1000 nM
CCC(=O)Nc1cc(C(=O)NCc2ccc(OC(F)(F)F)c(C)c2)ccn1 [Example 805, N-(3-methyl-4-(trifluoromethoxy)benzyl)-2-propionamidoisonicotinamide] | < 1000 nM | < 1000 nM
Cc1cc(CNC(=O)c2ccnc(NC(=O)C(C)C)c2)ccc1OC(F)(F)F [Example 807, 2-isobutyramido-N-(3-methyl-4-(trifluoromethoxy)benzyl)isonicotinamide] | < 1000 nM | < 1000 nM
CC(=O)Nc1cc(C(=O)NCc2ccc(OC(F)(F)F)c(C)c2)cc(C)n1 [Example 808, 2-acetamido-6-methyl-N-(3-methyl-4-(trifluoromethoxy)benzyl)isonicotinamide] | < 1000 nM | < 1000 nM
Cc1cc(C(=O)NCc2ccc(OC(F)(F)F)c(C)c2)cc(NC(=O)C(C)C)n1 [Example 809, 2-isobutyramido-6-methyl-N-(3-methyl-4-(trifluoromethoxy)benzyl)isonicotinamide] | < 1000 nM | < 1000 nM
CC(=O)Nc1cc(C(=O)NCc2cccc(C(F)(F)F)c2C)cc(C)n1 [Example 815, 2-acetamido-6-methyl-N-(2-methyl-3-(trifluoromethyl)benzyl)isonicotinamide] | < 1000 nM | < 1000 nM

The next lines start with the values.

IC50 (human Nav1.3 channels) | IC50 (human Nav1.7 channels) | Compound
< 1000 nM | < 1000 nM | COc1cc(CNC(=O)c2cc(C)nc(NC(=O)C(C)C)c2)cnc1OCC(F)(F)F [Example 492, 2-isobutyramido-N-((5-methoxy-6-(2,2,2-trifluoroethoxy)pyridin-3-yl)methyl)-6-methylisonicotinamide]
< 1000 nM | < 1000 nM | O=C(NCc1cccc(OC(F)(F)F)c1)c1ccnc(NC(=O)C2CC2)c1 [Example 524, 2-(cyclopropanecarboxamido)-N-(3-(trifluoromethoxy)benzyl)isonicotinamide]
< 1000 nM | < 1000 nM | Cc1cc(CNC(=O)c2ccnc(NC(=O)C3CC3)n2)cnc1OCC(F)(F)F [Example 564, 2-(cyclopropanecarboxamido)-N-((5-methyl-6-(2,2,2-trifluoroethoxy)pyridin-3-yl)methyl)pyrimidine-4-carboxamide]
< 1000 nM | < 1000 nM | O=C(NCc1cnc(OCC(F)F)c(Cl)c1)c1ccnc(NC(=O)C2CC2)n1 [Example 707, N-((5-chloro-6-(2,2-difluoroethoxy)pyridin-3-yl)methyl)-2-(cyclopropanecarboxamido)pyrimidine-4-carboxamide]
< 1000 nM | < 1000 nM | CCCC(=O)Nc1cc(C(=O)NCc2cnc(OCC(F)F)c(C)c2)ccn1 [Example 757, 2-butyramido-N-((6-(2,2-difluoroethoxy)-5-methylpyridin-3-yl)methyl)isonicotinamide]
< 1000 nM | < 1000 nM | CC(=O)Nc1cc(C(=O)NCc2cnc(OCC(F)(F)F)c(Br)c2)ccn1 [Example 762, 2-acetamido-N-((5-bromo-6-(2,2,2-trifluoroethoxy)pyridin-3-yl)methyl)isonicotinamide]
< 1000 nM | < 1000 nM | Cc1cc(C(=O)NCc2ccc(OCC(F)(F)F)c(C)c2)nc(NC(=O)C2CC2)n1 [Example 780, 2-(cyclopropanecarboxamido)-6-methyl-N-(3-methyl-4-(2,2,2-trifluoroethoxy)benzyl)pyrimidine-4-carboxamide]
< 1000 nM | < 1000 nM | CC(=O)Nc1cc(C(=O)NCc2ccc(OCC(F)(F)F)c(C)c2)ccn1 [Example 788, 2-acetamido-N-(3-methyl-4-(2,2,2-trifluoroethoxy)benzyl)isonicotinamide]
< 1000 nM | < 1000 nM | CCC(=O)Nc1cc(C(=O)NCc2ccc(OCC(F)(F)F)c(C)c2)ccn1 [Example 789, N-(3-methyl-4-(2,2,2-trifluoroethoxy)benzyl)-2-propionamidoisonicotinamide]
< 1000 nM | < 1000 nM | Cc1cc(CNC(=O)c2ccnc(NC(=O)C3CC3)c2)ccc1OCC(F)(F)F [Example 790, 2-(cyclopropanecarboxamido)-N-(3-methyl-4-(2,2,2-trifluoroethoxy)benzyl)isonicotinamide]
< 1000 nM | < 1000 nM | Cc1cc(CNC(=O)c2ccnc(NC(=O)C(C)C)c2)ccc1OCC(F)(F)F [Example 791, 2-isobutyramido-N-(3-methyl-4-(2,2,2-trifluoroethoxy)benzyl)isonicotinamide]
< 1000 nM | < 1000 nM | Cc1cc(CNC(=O)c2ccnc(NC(=O)C3CC3)c2)ccc1OC(F)(F)F [Example 806, 2-(cyclopropanecarboxamido)-N-(3-methyl-4-(trifluoromethoxy)benzyl)isonicotinamide]
< 1000 nM | < 1000 nM | Cc1cc(CNC(=O)c2ccnc(NC(=O)C3CC3)n2)ccc1OC(F)(F)F [Example 810, 2-(cyclopropanecarboxamido)-N-(3-methyl-4-(trifluoromethoxy)benzyl)pyrimidine-4-carboxamide]
< 1000 nM | < 1000 nM | Cc1cc(C(=O)NCc2ccc(OC(F)(F)F)c(C)c2)nc(NC(=O)C2CC2)n1 [Example 811, 2-(cyclopropanecarboxamido)-6-methyl-N-(3-methyl-4-(trifluoromethoxy)benzyl)pyrimidine-4-carboxamide]
